Results reported in US20240366589A1, “NHE3-BINDING COMPOUNDS AND METHODS FOR INHIBITING PHOSPHATE TRANSPORT” (Ardelyx, Inc., priority 2013, published 2024).

What was measured:
Rat NHE3 = molecular target: T1, Rat NHE3 (Rattus norvegicus, UniProt P26433); test: Cell-based NHE3 activity under prompt conditions (OK cells, BCECF pH recovery), rat NHE3; conditions: for IC50 / Prompt Rat NHE3 pIC50: prompt conditions; for IC50: read-out: Prompt Rat NHE3 pIC50 (converted)
T1 construct: expressed in transfected cells; host or cells: Opossum kidney (OK) cells (ATCC), electroporation
Method: (§1) Cell-based activity under Prompt Conditions. Rat or human NHE3-mediated Na^+-dependent H antiport was measured using a modification of the pH sensitive dye method originally reported by Paradiso (PNAS USA. 81:7436-7440, 1984). Opossum kidney (OK) cells were obtained from the ATCC and propagated per their instructions. The rat NHE3 gene (GenBank M85300) or the human NHE3 gene (GenBank NM_004174.1) was introduced into OK cells via electroporation, and cells were seeded into 96 well plates and grown overnight. Medium was aspirated from the wells, cells were washed twice with NaCl-HEPES buffer (100 mM NaCl, 50 mM HEPES, 10 mM glucose, 5 mM KCl, 2 mM CaCl2, 1 mM MgCl2, pH 7.4), then incubated for 30 min at room temperature with NH4Cl-HEPES buffer (20 mM NH4Cl, 80 mM NaCl, 50 mM HEPES, 5 mM KCl, 2 mM CaCl2, 1 mM MgCl2, pH 7.4) containing 5 μM bis(acetoxymethyl) 3,3′-(3′,6′-bis(acetoxymethoxy)-5-((acetoxymethoxy)carbonyl)-3-oxo-3H-spiro[isobenzofuran-1,9′-xanthene]-2′,7′-diyl)dipropanoate (BCECF-AM).
(§2) Cells were washed twice with Ammonium free, Na^+-free HEPES (100 mM choline, 50 mM HEPES, 10 mM glucose, 5 mM KCl, 2 mM CaCl2, 1 mM MgCl2, pH 7.4) and incubated in the same buffer for 10 minutes at room temperature to lower intracellular pH. […] Initial rates were plotted as the average 2 or more replicates, and pIC50 values were estimated using GraphPad Prism.
(§3) Cell-based activity of NHE3 Activity under ‘Prompt’ Conditions. This assay was performed as described in Example 1 (supra).

Human NHE3 = molecular target: T2, Human NHE3 (Homo sapiens, UniProt P48764); test: Cell-based NHE3 activity under prompt conditions (OK cells, BCECF pH recovery), human NHE3; conditions: for Prompt Human NHE3 pIC50: prompt conditions
T2 construct: expressed in transfected cells; host or cells: Opossum kidney (OK) cells (ATCC), electroporation
T2 sequence (P48764 26-834): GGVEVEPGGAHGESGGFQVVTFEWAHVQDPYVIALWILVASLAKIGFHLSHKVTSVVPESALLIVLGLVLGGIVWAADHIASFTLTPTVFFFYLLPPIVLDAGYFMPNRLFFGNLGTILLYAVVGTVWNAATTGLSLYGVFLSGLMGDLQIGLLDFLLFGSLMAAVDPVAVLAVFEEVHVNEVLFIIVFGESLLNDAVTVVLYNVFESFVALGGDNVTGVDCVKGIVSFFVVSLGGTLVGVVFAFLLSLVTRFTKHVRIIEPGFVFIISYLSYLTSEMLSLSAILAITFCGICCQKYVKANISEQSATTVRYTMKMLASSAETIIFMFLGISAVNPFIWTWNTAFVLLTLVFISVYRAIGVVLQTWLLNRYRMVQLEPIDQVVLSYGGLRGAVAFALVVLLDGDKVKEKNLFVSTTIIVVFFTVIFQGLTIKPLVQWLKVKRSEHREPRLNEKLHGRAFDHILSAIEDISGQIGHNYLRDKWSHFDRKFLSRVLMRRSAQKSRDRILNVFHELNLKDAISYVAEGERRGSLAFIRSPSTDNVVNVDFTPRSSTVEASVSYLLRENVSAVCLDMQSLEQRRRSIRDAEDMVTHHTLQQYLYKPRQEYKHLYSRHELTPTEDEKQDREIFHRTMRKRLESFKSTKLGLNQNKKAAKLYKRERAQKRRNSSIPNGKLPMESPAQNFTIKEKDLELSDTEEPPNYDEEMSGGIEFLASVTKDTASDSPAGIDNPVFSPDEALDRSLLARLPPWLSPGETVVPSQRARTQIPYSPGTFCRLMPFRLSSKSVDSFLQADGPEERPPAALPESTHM
Method: as §1, §2, §3

[1] = tested on: absorption of sodium from the intestinal lumen; test: Inhibition of intestinal sodium absorption: urinary sodium (uNa) 16 h after single oral dose in rats; format: in vivo, rat; conditions: for Urine Na % of control: oral gavage, 16 h post-dose
Method: (§4) Inhibition of intestinal sodium and phosphate absorption. Urinary sodium concentration and fecal form were measured to assess the ability of selected example compounds to inhibit the absorption of sodium from the intestinal lumen. Eight-week old Sprague-Dawley rats were purchased from Charles River Laboratories (Hollister, CA), were housed 2 per cage, and acclimated for at least 3 days before study initiation. Animals were fed Harlan Teklad Global 2018 rodent chow (Indianapolis, IN) and water ad libitum throughout the study and maintained in a standard light/dark cycle of 6 AM to 6 PM. On the day of the study, between 4 PM and 5 PM, a group of rats (n=6) were dosed via oral gavage with test compound, or a pharmaceutically acceptable salt thereof, or vehicle (water) at a volume of 10 mL/kg.
(§5) After dose administration animals were placed in individual metabolic cages where they were also fed the same chow in meal form and watered ad libitum. At 16 h post-dose, the urine samples were collected and fecal form was assessed by two independent observations. Fecal forms were scored according to a common scale associated with increasing fecal water to the wettest observation in the cage's collection funnel (1, normal pellet; 2, pellet adhering to sides of collection funnel due to moisture; 3, loss of normal pellet shape; 4, complete loss of shape with a blotting pattern; 5, liquid fecal streams evident). A rat's fecal form score (FFS) was determined by averaging both observational scores for all rats within a group (n=6). The vehicle group average was 1.
For urine samples, the volumes were determined gravimetrically and centrifuged at 3,600×g. The supernatants were diluted 100-fold in deionized Milli-Q water then filtered through a 0.2 μm GHP Pall AcroPrep filter plate (Pall Life Sciences, Ann Arbor, MI) prior to analysis by ion chromatography. Ten microliters of each filtered extract was injected onto a Dionex ICS-3000 ion chromatograph system (Dionex, Sunnyvale, CA). Cations were separated by an isocratic method using 25 mM methanesulfonic acid as the eluent on an IonPac CS12A 2 mm i.d.×250 mm, 8 μm particle size cation exchange column (Dionex). Sodium was quantified using standards prepared from a cation standard mix containing Li^+, Na^+, NH4^+, K^+, Mg^2+, and Ca^2+ (Dionex). The mean mass of sodium urinated for every group in the 16 h period was determined with the vehicle group usually urinating approximately 21 mg sodium. The urine Na (uNa) for rats in the test groups were expressed as a percentage of the vehicle mean and the means were compared to that of the vehicle group by utilizing a one-way analysis of variance coupled with a Dunnett's post hoc test.
Further experiments were performed to test the compounds under the persistent and prompt conditions described above, and to test their effects on urinary excretion of sodium in rats. The latter was performed by orally dosing the compounds in rats (single dose) and measuring urinary Na excretion (as a % of vehicle). The results are indicated as percentage of urinary sodium (UNa %); low values indicate relatively active compounds.

[2] = tested on: absorption of sodium from the intestinal lumen; test: Fecal form score (FFS) 16 h after oral dose in rats; format: in vivo, rat; conditions: oral gavage, 16 h post-dose, scale 1-5
Method: as §4, §5

[3] = tested on: phosphorus and calcium levels in the urine of rats; test: Urinary excretion of phosphate and calcium in rats (16 h overnight urine); format: in vivo, rat; conditions: rats, oral gavage, 16 h post-dose

T1 sequence (P26433 29-831): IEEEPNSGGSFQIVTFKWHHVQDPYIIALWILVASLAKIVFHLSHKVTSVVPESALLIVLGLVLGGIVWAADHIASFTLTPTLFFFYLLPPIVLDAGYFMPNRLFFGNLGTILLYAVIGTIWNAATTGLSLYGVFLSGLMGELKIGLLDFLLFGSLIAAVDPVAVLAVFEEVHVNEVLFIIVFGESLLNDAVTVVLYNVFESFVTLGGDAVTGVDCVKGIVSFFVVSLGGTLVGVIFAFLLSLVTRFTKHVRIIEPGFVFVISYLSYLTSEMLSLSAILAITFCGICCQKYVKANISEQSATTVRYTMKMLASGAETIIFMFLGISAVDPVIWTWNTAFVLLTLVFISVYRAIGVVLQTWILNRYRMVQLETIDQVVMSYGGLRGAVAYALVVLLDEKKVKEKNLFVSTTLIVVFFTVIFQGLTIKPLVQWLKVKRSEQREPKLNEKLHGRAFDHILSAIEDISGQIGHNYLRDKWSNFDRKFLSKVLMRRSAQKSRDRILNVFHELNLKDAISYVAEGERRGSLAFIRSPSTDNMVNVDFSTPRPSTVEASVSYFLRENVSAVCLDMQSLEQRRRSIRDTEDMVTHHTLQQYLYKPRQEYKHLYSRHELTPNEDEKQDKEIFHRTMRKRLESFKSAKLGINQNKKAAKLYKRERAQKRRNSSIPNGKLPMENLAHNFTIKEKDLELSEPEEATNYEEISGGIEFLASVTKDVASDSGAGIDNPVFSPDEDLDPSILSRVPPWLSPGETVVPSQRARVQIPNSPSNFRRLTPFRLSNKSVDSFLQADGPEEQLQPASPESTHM

Row | SMILES | Prompt Human NHE3 pIC50 (Human NHE3) | Prompt Rat NHE3 pIC50 (Rat NHE3) | Urine Na % of control ([1]; dose 10 mg/kg) | Fecal Form Score average ([2]; dose 10 mg/kg) | Urine P % of control ([3]; dose 10 mg/kg) | also measured
1 | CN1Cc2c(Cl)cc(Cl)cc2[C@H](c2cccc(S(=O)(=O)NCCOCCOCCOCCNC(=O)CCN(CCC(=O)NCCOCCOCCOCCNS(=O)(=O)c3cccc([C@@H]4CN(C)Cc5c(Cl)cc(Cl)cc54)c3)CCC(=O)NCCOCCOCCOCCNS(=O)(=O)c3cccc([C@@H]4CN(C)Cc5c(Cl)cc(Cl)cc54)c3)c2)C1 [compound 79] | 7.20 | – | 17% | 3 | 33% | IC50 (Rat NHE3): 316 nM; Urine Na % of control ([1]; dose 1 mg/kg): 65%; Urine Na % of control ([1]; dose 3 mg/kg): 44%; Fecal Form Score average ([2]; dose 1 mg/kg): 1; Fecal Form Score average ([2]; dose 3 mg/kg): 2; Urine P % of control ([3]; dose 1 mg/kg): 109%; Urine P % of control ([3]; dose 3 mg/kg): 81%
2 | CN1Cc2c(Cl)cc(Cl)cc2[C@H](c2cccc(S(=O)(=O)NCCOCCOCCNC(=O)NCCCC(CCCNC(=O)NCCOCCOCCNS(=O)(=O)c3cccc([C@@H]4CN(C)Cc5c(Cl)cc(Cl)cc54)c3)(CCCNC(=O)NCCOCCOCCNS(=O)(=O)c3cccc([C@@H]4CN(C)Cc5c(Cl)cc(Cl)cc54)c3)NC(=O)NC[C@H](O)[C@@H](O)[C@H](O)[C@H](O)CO)c2)C1 [compound 167] | 8.37 | 5.80 | – | – | – | Urine Na % of control ([1]; dose 3 mg/kg): 36%; Fecal Form Score average ([2]; dose 3 mg/kg): 2; Urine P % of control ([3]; dose 3 mg/kg): 99%
3 | O=C(CCOCCOCCOCCOCCOCCC(=O)NCCOCCOCCNS(=O)(=O)c1ccc(OC2c3ccccc3CC2N2CCCCC2)cc1)NCCOCCOCCNS(=O)(=O)c1ccc(OC2c3ccccc3CC2N2CCCCC2)cc1 (racemic) [compound 54] | 7.50 | 7.30 | 75% | 1 | 72% | –
4 | CN1Cc2c(Cl)cc(Cl)cc2C(c2cccc(NC(=O)[C@H](O)[C@@H](O)[C@H](O)[C@H](O)CO)c2)C1 (stereo in doubt) [compound 3] | 7.60 | – | – | – | – | IC50 (Rat NHE3): 39.8 nM; Urine Na % of control ([1]; dose 1 mg/kg): 41%; Fecal Form Score average ([2]; dose 1 mg/kg): 1; Urine P % of control ([3]; dose 1 mg/kg): 57%
5 | CN1Cc2c(Cl)cc(Cl)cc2[C@H](c2cccc(S(=O)(=O)NCCOCCOCCOCCNC(=O)[C@@H](O)[C@H](O)C(=O)NCCOCCOCCOCCNS(=O)(=O)c3cccc([C@@H]4CN(C)Cc5c(Cl)cc(Cl)cc54)c3)c2)C1 [compound 6] | 8.30 | – | – | – | – | Urine Na % of control ([1]; dose 1 mg/kg): 21%; Fecal Form Score average ([2]; dose 1 mg/kg): 2; Urine P % of control ([3]; dose 1 mg/kg): 46%
6 | O=C(NCCCCNC(=O)NCCOCCOCCNS(=O)(=O)c1ccc(O[C@H]2c3cc(Cl)cc(F)c3C[C@@H]2N2CCCCC2)cc1)NCCOCCOCCNS(=O)(=O)c1ccc(O[C@H]2c3cc(Cl)cc(F)c3C[C@@H]2N2CCCCC2)cc1 [compound 160] | 7.70 | – | 108% | 1 | 77% | –
7 | CN1Cc2c(Cl)cc(Cl)cc2[C@H](c2cccc(NC(=O)[C@H](O)[C@@H](O)[C@H](O)[C@H](O)CO)c2)C1 [Cpd 001] | – | – | – | – | – | Rat NHE3 pIC50 Prompt (Rat NHE3; Table E5, 001 free base, 002-005 dihydrochloride salt): 7.6; IC50 (Human NHE3; Table E5, 001 free base, 002-005 dihydrochloride salt, read-out: Human NHE3 pIC50 Prompt (converted)): 39.8 nM; UNa (%) ([1]; urinary Na excretion as % of vehicle, single oral dose 1 mg/kg): 41 @ 1 mg/kg %
8 | CN(C)[C@H]1Cc2c(Cl)cc(Cl)cc2[C@@H]1Oc1ccc(S(=O)(=O)NCCOCCOCCNC(=O)NCCCCNC(=O)NCCOCCOCCN(C)S(=O)(=O)c2ccc(O[C@H]3c4cc(Cl)cc(Cl)c4C[C@@H]3N(C)C)cc2)cc1 [compound 171] | 8.20 | – | 49% | 1 | 49% | –

Further lines, with some results ahead:

Row | Prompt Human NHE3 pIC50 (Human NHE3) | Prompt Rat NHE3 pIC50 (Rat NHE3) | SMILES | Urine Na % of control ([1]; dose 10 mg/kg) | Fecal Form Score average ([2]; dose 10 mg/kg) | Urine P % of control ([3]; dose 10 mg/kg) | also measured
9 | 6.60 | 7.10 | NC(N)=Nc1nc(-c2ccc(N3CCN(CCOCCOCCNC(=O)[C@H](O)[C@@H](O)C(=O)NCCOCCOCCN4CCN(c5ccc(-c6nc(N=C(N)N)nc7ccc(Cl)cc67)cc5)CC4)CC3)cc2)c2cc(Cl)ccc2n1 [compound 17] | – | – | – | Urine Na % of control ([1]; dose 30 mg/kg): 86%; Fecal Form Score average ([2]; dose 30 mg/kg): 1; Urine P % of control ([3]; dose 30 mg/kg): 120%
10 | 7.40 | 7.00 | NCCOCCOCCN1CCN(c2ccc(-c3nc(N=C(N)N)nc4ccc(Cl)cc34)cc2)CC1 [compound 19] | 72% | 1 | 119% | –
11 | 8.70 | <5.00 | CN(C)[C@H]1Cc2c(Cl)cc(Cl)cc2[C@@H]1Oc1ccc(S(=O)(=O)NCCOCCOCCNC(=O)Nc2ccc(NC(=O)NCCOCCOCCNS(=O)(=O)c3ccc(O[C@H]4c5cc(Cl)cc(Cl)c5C[C@@H]4N(C)C)cc3)cc2)cc1 [compound 152] | 26% | 1 | 74% | –
12 | 8.10 | 7.60 | CC(O)C(CCC(=O)NCCOCCOCCNS(=O)(=O)c1cccc([C@@H]2CN(C)Cc3c(Cl)cc(Cl)cc32)c1)(CCC(=O)NCCOCCOCCNS(=O)(=O)c1cccc([C@@H]2CN(C)Cc3c(Cl)cc(Cl)cc32)c1)CCC(=O)NCCOCCOCCNS(=O)(=O)c1cccc([C@@H]2CN(C)Cc3c(Cl)cc(Cl)cc32)c1 (stereo partly shown) [compound 173] | – | – | – | –
